Laboratory results published in PubChem BioAssay AID248 (DTP/NCI, 2004).
Toxic doses and inconclusive results are not listed. Rule as the data show it: active = T/C of 150% or more; inactive = T/C below 125%.

Test system: L1210 leukemia ip in BDF1 mice, survival T/C
Assay: NCI In Vivo Anticancer Drug Screen. Data for tumor model L1210 Leukemia (intraperitoneal) in B6D2F1 (BDF1) mice
Details: endpoint: mean survival time, higher = longer survival
Procedure, shortened: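 Survival endpoint. Drug-treated group vs vehicle group, expressed as T divided by C. Tumor passaged by transplantation.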

[1] = dose: 100.0 mg/kg/injection, schedule: Q01DX001 (ip), vehicle: carboxymethylcellulose (CMC)
[2] = dose: 200.0 mg/kg/injection, schedule: Q01DX001 (ip), vehicle: carboxymethylcellulose (CMC)
[3] = dose: 400.0 mg/kg/injection, schedule: Q01DX001 (ip), vehicle: carboxymethylcellulose (CMC)
[4] = dose: 50.0 mg/kg/injection, schedule: Q01DX001 (ip), vehicle: saline
[5] = dose: 100.0 mg/kg/injection, schedule: Q01DX009 (ip), vehicle: Klucel (hydroxypropylcellulose) (HPC)
[6] = dose: 200.0 mg/kg/injection, schedule: Q01DX009 (ip), vehicle: Klucel (hydroxypropylcellulose) (HPC)
[7] = dose: 400.0 mg/kg/injection, schedule: Q01DX009 (ip), vehicle: Klucel (hydroxypropylcellulose) (HPC)
[8] = dose: 100.0 mg/kg/injection, schedule: Q04DX003 (ip), vehicle: Klucel (hydroxypropylcellulose) (HPC)
[9] = dose: 200.0 mg/kg/injection, schedule: Q04DX003 (ip), vehicle: Klucel (hydroxypropylcellulose) (HPC)
[10] = dose: 400.0 mg/kg/injection, schedule: Q04DX003 (ip), vehicle: Klucel (hydroxypropylcellulose) (HPC)

Measured: T/C

Cc1cc(=O)[nH]c2c(C)cc(Cc3cc(C)c4[nH]c(=O)cc(C)c4c3)cc12
inactive: [1] 96 % of control | [2] 101 % of control | [3] 103 % of control

Cc1ccc(N=Nc2c(C)nc(N)nc2C)c(C)c1
inactive: dose: 75.0 mg/kg/injection, schedule: Q01DX001 (ip), vehicle: other 98 % of control | dose: 150.0 mg/kg/injection, schedule: Q01DX001 (ip), vehicle: other 98 % of control | dose: 300.0 mg/kg/injection, schedule: Q01DX001 (ip), vehicle: other 98 % of control

CC(=O)c1cc(-c2ccccc2)nc2c(C)c(Cl)ccc12
inactive: [1] 90 % of control | [2] 92 % of control | [3] 90 % of control

O=C(OC(CCN1CCCCC1)c1ccccc1)c1ccccc1 (configuration not stated)
inactive: dose: 100.0 mg/kg/injection, schedule: Q04DX003 (ip), vehicle: saline with Tween-80 100 % of control

CN(C)Cc1c[nH]c2c1S/C(=C/c1ccccc1)C2=O
inactive: dose: 100.0 mg/kg/injection, schedule: Q01DX001 (ip), vehicle: Klucel (hydroxypropylcellulose) (HPC) 105 % of control | dose: 200.0 mg/kg/injection, schedule: Q01DX001 (ip), vehicle: Klucel (hydroxypropylcellulose) (HPC) 96 % of control | dose: 400.0 mg/kg/injection, schedule: Q01DX001 (ip), vehicle: Klucel (hydroxypropylcellulose) (HPC) 100 % of control

c1ccc(OCCC[P+](c2ccccc2)(c2ccccc2)c2ccccc2)cc1
inactive: [4] 100 % of control

COc1ccccc1/C=C(\C#N)c1cccc2ccccc12
inactive: dose: 25.0 mg/kg/injection, schedule: Q04DX002 (ip), vehicle: Klucel (hydroxypropylcellulose) (HPC) 118 % of control | dose: 50.0 mg/kg/injection, schedule: Q04DX002 (ip), vehicle: Klucel (hydroxypropylcellulose) (HPC) 93 % of control | [5] 94 % of control | dose: 100.0 mg/kg/injection, schedule: Q04DX002 (ip), vehicle: Klucel (hydroxypropylcellulose) (HPC) 107 % of control | [6] 89 % of control | [7] 90 % of control

c1ccc(Cc2cncc(Cc3ccccc3)n2)cc1
inactive: [8] 101 % of control | [9] 97 % of control | [10] 98 % of control

O=[N+]([O-])c1ccccc1OCCBr
inactive: [8] 100 % of control | [9] 94 % of control

Cn1c(=O)c2c(nc(CCCC3CCCCC3)n2C)n(C)c1=O
inactive: [4] 103 % of control | dose: 100.0 mg/kg/injection, schedule: Q01DX001 (ip), vehicle: saline 97 % of control | dose: 200.0 mg/kg/injection, schedule: Q01DX001 (ip), vehicle: saline 111 % of control | dose: 400.0 mg/kg/injection, schedule: Q01DX001 (ip), vehicle: saline 103 % of control

CCCCCCCCCC(O)CCC (configuration not stated)
inactive: [5] 103 % of control | [8] 96 % of control | [6] 109 % of control | [9] 91 % of control | [7] 103 % of control | [10] 89 % of control

CC12CCC3C(CCC4C(C)(C(=O)O)CCCC34C)(CC1=O)C2 (configuration not stated)
inactive: dose: 100.0 mg/kg/injection, schedule: Q01DX001 (ip), vehicle: saline with Tween-80 92 % of control | dose: 200.0 mg/kg/injection, schedule: Q01DX001 (ip), vehicle: saline with Tween-80 95 % of control

COc1ccc(C(=O)CCCCl)cc1
inactive: [5] 102 % of control | [8] 107 % of control | [6] 102 % of control | [9] 96 % of control | [7] 89 % of control | [10] 102 % of control

CC(C)P(=O)(CCP(=O)(c1ccccc1)c1ccccc1)c1ccccc1 (configuration not stated)
inactive: dose: 50.0 mg/kg/injection, schedule: Q04DX002 (ip), vehicle: saline with Tween-80 106 % of control | dose: 100.0 mg/kg/injection, schedule: Q04DX002 (ip), vehicle: saline with Tween-80 100 % of control | dose: 200.0 mg/kg/injection, schedule: Q04DX002 (ip), vehicle: saline with Tween-80 87 % of control

O=C(O)CN=CC(O)C(O)C(O)C(O)CO (configuration not stated)
inactive: dose: 12.5 mg/kg/injection, schedule: Q04DX002 (ip), vehicle: saline 105 % of control | dose: 25.0 mg/kg/injection, schedule: Q04DX002 (ip), vehicle: saline 88 % of control | dose: 50.0 mg/kg/injection, schedule: Q04DX002 (ip), vehicle: saline 105 % of control | dose: 100.0 mg/kg/injection, schedule: Q04DX002 (ip), vehicle: saline 123 % of control | dose: 200.0 mg/kg/injection, schedule: Q04DX002 (ip), vehicle: saline 103 % of control | dose: 400.0 mg/kg/injection, schedule: Q04DX002 (ip), vehicle: saline 106 % of control
